We go through ten molecules from patent publication US20260035365A1, “1H-PYRROLO[3,2-B]PYRIDINE DERIVATIVES AS IRREVERSIBLE INHIBITORS OF MUTANT EGFR FOR THE TREATMENT OF CANCER” (Bayer Aktiengesellschaft, priority 2022, published 2026).

Molecules are shown by their SMILES. Some results are limits rather than exact numbers.

The subject of one assay is BA/F3 (insSVD) cells. The assay can be described thus: Ba/F3 cell survival assay (Cell Titer-Glo), EGFR-insSVD. Format: cell-based. As to conditions: Mus musculus, BaF3, 48 h, without IL-3, with EGF. Put shortly:
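Ba/F3 cells stably expressing EGFR-insSVD or insSVD T790M via retrovirus (puromycin-selected), switched from IL-3 to 10 ng/mL EGF for 2 days, then plated at 4000 cells/well. Compound added by 100 nL pin transfer; 48 h at 37° C. Viability by CellTiter-Glo luminescence.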
(In general: Cellular ATP, detected with luciferase, serves as a proxy for viable cell number.)

Assay [1] has as its target mutEGFR (D770_N771insSVD) (Homo sapiens, UniProt P00533, INS767SVD). Nature of the assay: Exon20-mutant-EGFR (D770_N771insSVD) TR-FRET kinase assay. Format: biochemical. The settings on record: 2 mM ATP, 15 min preincubation. The essentials:
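GST-fused human EGFR fragment R669-A1210 carrying the SVD insertion, Sf9-expressed, typically 15 pg/μl, was preincubated with compound for 15 min at 22° C in pH 7.0 Hepes/MgCl2 buffer. Phosphorylation was read by HTRF (665/620 nm ratio), normalised to no-inhibitor and no-enzyme controls.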
A general note: Time-resolved FRET reads energy transfer from a long-lived donor to a nearby acceptor.

Assay [2] deals with BA/F3 (EGFR D770_N771 insSVD T790M) cells. Nature of the assay: Ba/F3 cell survival assay (Cell Titer-Glo), EGFR-insSVD T790M. It is filed as cell-based. The settings on record: Ba/F3 EGFR-D770-N771ins_SVD; 48 h, without IL-3, with EGF. The method, then: 293T cells from ATCC were transfected with pBABEpuro expression constructs for WT EGFR or EGFR-insSVD, or EGFR-insSVD T790M, and pCL-Eco packaging vector using Fugene-6 transfection reagent from Promega. Plates were incubated at 37° C. for 48 h. Retrovirus was harvested by filtering the media supernatant through a 0.45 μm filter.
Ba/F3 cells purchased from DSMZ were grown in RPMI+10% FBS+10 ng/mL IL-3 and infected with filtered retroviral supernatant at a 1:2 dilution. Polybrene was added to a concentration of 8 μg/mL, plates were spun for 90 min, and incubated for 16 h at 37° C. 2 μg/mL puromycin was added to the infected cells 24 h after infection and cells were continually grown in the presence of puromycin and 10 ng/mL IL-3. Following stably expressing Ba/F3 cell lines were generated: Ba/F3-EGFR-WT, Ba/F3-EGFR-insSVD, Ba/F3-EGFR-insSVD T790M, (Ba/F3-vector-control).
For cell survival assays, Ba/F3 cells were grown to a density of 1-2 million cells per mL, spun down and resuspended in media without IL-3, and replated at a concentration of 200,000-500,000 cells per mL. The cells ectopically expressing WT EGFR, EGFR-insSVD, or EGFR-insSVD T790M were plated with 10 ng/mL Millipore Culture grade EGF. The cells ectopically expressing pBABEpuro empty vector were plated with 10 ng/mL IL-3.
2 days later, cells were plated in 50 μL in a 384 well plate at a concentration of 4000 cells per well for cells assayed in the absence of IL-3 and 2000 cells per well for cells assayed in the presence of IL-3. 100 nL of compound was added to each well using a 100 nL pin head, and plates were incubated at 37° C. for 48 h.
Cell viability was measured by adding 20 μL of Cell Titer-Glo Luminescent Cell Viability Reagent diluted 1:3 in PBS. Plates were sealed with Perkin Elmer Top-Seal, inverted several times to mix, and immediately centrifuged at 1000 rpm for 2 min. Plates were incubated in low light conditions for 8-10 min and luminescence was measured.

Assay [3] concerns the target mutEGFR (D770_N771insNPG, T790). The assay can be described thus: mutEGFR (D770_N771insNPG, T790) kinase assay. Format: biochemical, human.

Sequence of mutEGFR (D770_N771insSVD) (P00533 with tags, fused parts or gaps INS767SVD limits assumed): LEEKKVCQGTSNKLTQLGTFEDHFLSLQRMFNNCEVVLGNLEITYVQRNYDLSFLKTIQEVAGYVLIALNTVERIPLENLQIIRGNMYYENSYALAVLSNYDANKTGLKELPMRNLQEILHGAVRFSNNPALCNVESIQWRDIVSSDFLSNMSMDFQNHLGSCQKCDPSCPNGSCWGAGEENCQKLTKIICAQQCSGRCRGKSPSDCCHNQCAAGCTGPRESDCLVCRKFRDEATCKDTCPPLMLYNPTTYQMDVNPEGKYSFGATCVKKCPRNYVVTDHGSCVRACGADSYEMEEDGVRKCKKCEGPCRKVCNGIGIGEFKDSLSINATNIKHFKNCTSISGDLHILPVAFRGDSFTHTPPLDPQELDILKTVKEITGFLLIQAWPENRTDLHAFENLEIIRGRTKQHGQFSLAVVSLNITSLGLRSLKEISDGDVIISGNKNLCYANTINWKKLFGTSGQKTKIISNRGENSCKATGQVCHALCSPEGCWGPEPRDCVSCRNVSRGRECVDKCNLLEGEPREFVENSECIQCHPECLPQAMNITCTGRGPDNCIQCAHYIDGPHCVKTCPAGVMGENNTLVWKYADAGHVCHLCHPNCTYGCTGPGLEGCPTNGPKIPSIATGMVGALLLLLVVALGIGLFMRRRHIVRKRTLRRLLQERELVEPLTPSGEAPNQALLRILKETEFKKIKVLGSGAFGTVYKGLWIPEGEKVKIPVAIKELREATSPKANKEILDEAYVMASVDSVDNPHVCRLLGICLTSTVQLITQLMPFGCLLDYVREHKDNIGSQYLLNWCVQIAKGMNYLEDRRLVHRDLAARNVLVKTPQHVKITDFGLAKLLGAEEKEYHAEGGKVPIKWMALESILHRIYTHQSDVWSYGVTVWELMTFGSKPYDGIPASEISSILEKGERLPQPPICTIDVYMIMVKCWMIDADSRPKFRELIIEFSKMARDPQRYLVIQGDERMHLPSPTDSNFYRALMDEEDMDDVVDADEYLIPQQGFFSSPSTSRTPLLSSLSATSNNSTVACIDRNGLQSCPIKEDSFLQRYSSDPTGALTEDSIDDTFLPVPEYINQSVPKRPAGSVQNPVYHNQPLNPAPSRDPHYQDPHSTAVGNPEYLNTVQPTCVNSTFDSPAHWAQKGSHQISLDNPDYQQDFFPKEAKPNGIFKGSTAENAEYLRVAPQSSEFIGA
Sequence of mutEGFR (D770_N771insNPG, T790) (P00533 with tags, fused parts or gaps INS770NPG limits assumed): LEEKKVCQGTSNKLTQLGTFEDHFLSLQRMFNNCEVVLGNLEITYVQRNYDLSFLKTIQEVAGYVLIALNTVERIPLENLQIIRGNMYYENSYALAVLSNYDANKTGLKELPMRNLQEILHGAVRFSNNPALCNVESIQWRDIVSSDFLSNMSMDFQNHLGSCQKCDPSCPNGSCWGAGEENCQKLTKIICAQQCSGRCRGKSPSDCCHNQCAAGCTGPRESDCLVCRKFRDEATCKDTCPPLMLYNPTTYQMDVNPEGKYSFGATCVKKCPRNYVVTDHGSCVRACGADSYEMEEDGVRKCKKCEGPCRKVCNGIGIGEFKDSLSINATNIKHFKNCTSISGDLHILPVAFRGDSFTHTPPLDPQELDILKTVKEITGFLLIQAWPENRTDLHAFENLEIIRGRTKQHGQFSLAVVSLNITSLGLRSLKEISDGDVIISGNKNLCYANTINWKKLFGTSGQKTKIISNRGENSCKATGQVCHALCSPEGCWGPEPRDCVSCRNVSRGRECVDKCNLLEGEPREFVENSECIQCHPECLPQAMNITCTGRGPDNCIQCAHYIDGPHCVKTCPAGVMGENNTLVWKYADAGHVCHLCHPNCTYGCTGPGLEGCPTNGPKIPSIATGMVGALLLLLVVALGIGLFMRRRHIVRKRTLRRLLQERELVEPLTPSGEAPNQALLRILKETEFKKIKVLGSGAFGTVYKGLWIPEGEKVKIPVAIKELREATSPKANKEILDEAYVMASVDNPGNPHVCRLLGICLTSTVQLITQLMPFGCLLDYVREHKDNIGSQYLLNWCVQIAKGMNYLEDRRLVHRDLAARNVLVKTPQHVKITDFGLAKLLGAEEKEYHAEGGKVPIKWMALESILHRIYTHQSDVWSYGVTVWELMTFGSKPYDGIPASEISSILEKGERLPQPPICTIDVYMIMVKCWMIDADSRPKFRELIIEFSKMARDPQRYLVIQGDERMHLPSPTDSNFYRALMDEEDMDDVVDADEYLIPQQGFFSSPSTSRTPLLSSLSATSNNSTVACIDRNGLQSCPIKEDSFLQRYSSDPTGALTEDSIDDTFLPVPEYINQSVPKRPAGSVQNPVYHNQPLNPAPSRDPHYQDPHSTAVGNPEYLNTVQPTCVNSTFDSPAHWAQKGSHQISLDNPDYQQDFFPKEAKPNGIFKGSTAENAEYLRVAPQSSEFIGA

In the case of `C=CC(=O)NCCOc1cnccc1-c1[nH]c2cccnc2c1-c1ccc(F)cc1` [Example 1, N-[2-({4-[3-(4-fluorophenyl)-1H-pyrrolo[3,2-b]pyridin-2-yl]pyridin-3-yl}oxy)ethyl]prop-2-enamide], the 50% inhibitory concentration (IC50) (commonly the concentration that inhibits the measured activity by half) in the assay on BA/F3 (insSVD) cells turned out to be 4.47 µM; in assay [1], 0.414 µM; in assay [2], 9.98 µM; in assay [3], 0.606 µM.

Take `C=CC(=O)NCCOc1cnccc1-c1[nH]c2cccnc2c1-c1ccccc1` [Example 2, N-(2-{[4-(3-phenyl-1H-pyrrolo[3,2-b]pyridin-2-yl)pyridin-3-yl]oxy}ethyl)prop-2-enamide]: the concentration for half-maximal inhibition (IC50) with BA/F3 (insSVD) cells was determined as 5.02 µM; in assay [1], 0.461 µM; in assay [2], 9.98 µM; in assay [3], 0.751 µM.

Turning to `C=CC(=O)N(C)CCCOc1cnccc1-c1[nH]c2cccnc2c1-c1ccccc1` [Example 3, N-methyl-N-(3-{[4-(3-phenyl-1H-pyrrolo[3,2-b]pyridin-2-yl)pyridin-3-yl]oxy}propyl)prop-2-enamide], the IC50 turned out to be 9.98 µM in the assay on BA/F3 (insSVD) cells, 2.84 µM in assay [1], 9.98 µM in assay [2] and 3.41 µM in assay [3].

With `C=CC(=O)N(C)CCOc1cnccc1-c1[nH]c2cccnc2c1-c1ccccc1` [Example 4, N-methyl-N-(2-{[4-(3-phenyl-1H-pyrrolo[3,2-b]pyridin-2-yl)pyridin-3-yl]oxy}ethyl)prop-2-enamide], the IC50 with BA/F3 (insSVD) cells was found to be 0.346 µM; in assay [1], 0.00758 µM; in assay [2], 9.98 µM; in assay [3], 0.0171 µM.

Regarding `C=CC(=O)NCCCOc1cnccc1-c1[nH]c2cccnc2c1-c1ccccc1` [Example 5, N-(3-{[4-(3-phenyl-1H-pyrrolo[3,2-b]pyridin-2-yl)pyridin-3-yl]oxy}propyl)prop-2-enamide], the half-maximal inhibitory concentration (IC50) was 9.98 µM in the assay with BA/F3 (insSVD) cells, 11.3 µM in assay [1], 9.98 µM in assay [2] and > 20 µM in assay [3].

For the molecule `C=CC(=O)NCCOc1cnccc1-c1[nH]c2cc(F)cnc2c1-c1ccccc1` [Example 6, N-(2-{[4-(6-fluoro-3-phenyl-1H-pyrrolo[3,2-b]pyridin-2-yl)pyridin-3-yl]oxy}ethyl)prop-2-enamide], the IC50 with BA/F3 (insSVD) cells turned out to be 7.08 µM; in assay [1], 3.85 µM; in assay [2] it was 9.98 µM; in assay [3], 5.51 µM.

As for `C=CC(=O)N(C)CCOc1cnccc1-c1[nH]c2cc(F)cnc2c1-c1ccccc1` [Example 7, N-(2-{[4-(6-fluoro-3-phenyl-1H-pyrrolo[3,2-b]pyridin-2-yl)pyridin-3-yl]oxy}ethyl)-N-methylprop-2-enamide], the IC50 was determined as 4.15 µM with BA/F3 (insSVD) cells, 0.147 µM in assay [1], 6.99 µM in assay [2] and 0.316 µM in assay [3].

As to `C=CC(=O)N(C)CCOc1cnccc1-c1[nH]c2ccc(OC)nc2c1-c1ccccc1` [Example 8, N-(2-{[4-(5-methoxy-3-phenyl-1H-pyrrolo[3,2-b]pyridin-2-yl)pyridin-3-yl]oxy}ethyl)-N-methylprop-2-enamide], the half-inhibitory concentration (IC50) with BA/F3 (insSVD) cells amounted to 5.27 µM; in assay [1] it was 0.198 µM; in assay [2], 8.93 µM; in assay [3], 0.52 µM.

In the case of `C=CC(=O)N(C)CCOc1cnccc1-c1[nH]c2cccnc2c1-c1cccc(C)c1` [Example 9, N-methyl-N-[2-({4-[3-(3-methylphenyl)-1H-pyrrolo[3,2-b]pyridin-2-yl]pyridin-3-yl}oxy)ethyl]prop-2-enamide], the IC50 in the assay with BA/F3 (insSVD) cells turned out to be 0.293 µM; in assay [1], 0.00601 µM; in assay [2] it was 8.72 µM; in assay [3], 0.0135 µM.

Turning to `C=CC(=O)N(C)CCOc1cnccc1-c1[nH]c2cccnc2c1-c1ccc(Cl)c(C)c1` [Example 10, N-[2-({4-[3-(4-chloro-3-methylphenyl)-1H-pyrrolo[3,2-b]pyridin-2-yl]pyridin-3-yl}oxy)ethyl]-N-methylprop-2-enamide], the IC50 in the assay with BA/F3 (insSVD) cells was 2.93 µM; in assay [1] it was 0.0731 µM; in assay [2] it was 9.98 µM; in assay [3] it was 0.0906 µM.
